Key:
laccase (NS51003) = experiment: Chicago Blue (Direct Blue 1) dye bleaching assay for laccase mediators; format: biochemical, Aspergillus sp.; details: potential mediator 0.1 micromole/ml, decrease in absorbance at 610 nm
Protocol: The Chicago Blue Dye, also known as Direct Blue 1 or DB 1, was used to identify these compounds. The Chicago Blue Dye is fully described by Schneider et al. in U.S. Pat. No. 5,885,304, which is hereby incorporated by reference, and has the following formula. [drawing 10]
Each of the test compounds (i.e., potential mediators) was dissolved in water, or in ethanol if the potential mediator was not water soluble, and then mixed with a phosphate buffer and a Chicago Blue solution. […] The change in the absorbance at A610 nm was measured immediately using a UV-VIS spectrophotometer (UV-1201, Shimadzu Scientific Instruments) after the enzyme was added. The decrease in absorbance was recorded at 30-second intervals for 5 minutes and was used to estimate the efficiency of the mediator.
Experiments were conducted at pH levels of 5.5 and 7.0. The last column gives the decrease in absorbance at 610 nm. The larger the decrease in absorbance at 610 nm, the better is the ability to discolor the dye.

[1] = Appearance of potential mediator in water; format: physicochemical
[2] = test system: laccase (NS51003, Novozymes A/S) and xylanase (Pulpzyme HC, Novozymes A/S); experiment: Bleaching of Chicago Blue at pH 7.0 with laccase and xylanase combination; format: biochemical; details: mediator 20 μM
Protocol: In the following example, the enzyme enhancing agent N-benzylidenebenzylamine was used as a mediator for a laccase to enhance the bleaching of Chicago Blue at pH 7.0 in the presence of a laccase and a xylanase.
The activity of the xylanase (Pulpzyme HC, Novozymes A/S) is 1000 units per ml enzyme solution. One xylanase unit is defined as the amount of enzyme which, under standard conditions (pH 9.0, 50° C., 30 minutes of incubation), release one micromole of the dye from a dyed RBB xylan.
N-Benzylidenebenzylamine was dissolved in ethanol and then mixed with a phosphate buffer and a Chicago Blue solution. A solution of laccase (NS51003, Novozymes A/S) and xylanase (Pulpzyme HC, Novozymes A/S) was added to make 1 ml of the final solution, containing 20 uM of the mediator, 20 mM buffer at pH 7.0 and Chicago Blue solution, with absorbance at A610 nm between 0.6 to 0.8. After the enzyme was added, the change in the absorbance was measured immediately using a UV spectrophotometer (UV-1201, Shimadzu Scientific Instruments). The decrease in absorbance was recorded after 3 minutes and was used to estimate the results of bleaching.

Compound: O=C1Nc2ccccc2C1=O [Isatin]
- ΔmA610 (3 min) (laccase (NS51003); pH 5.5): 6
- Appearance in water ([1]; Table 1 (pH 5.5 series)): clear

Compound: O=C(O)C=Cc1ccccc1O [2-Hydroxycinnamic acid]
- ΔmA610 (3 min) (laccase (NS51003); pH 5.5): 5
- Appearance in water ([1]; Table 1 (pH 5.5 series)): clear

Compound: COc1cc(C=CC(=O)O)cc(OC)c1O [3,5-Dimethoxy-4-hydroxycinnamic acid]
- ΔmA610 (3 min) (laccase (NS51003); pH 5.5): 491
- Appearance in water ([1]; Table 1 (pH 5.5 series)): clear

Compound: O=C(O)C=Cc1cccc(Cl)c1 [3-Chlorocinnamic acid]
- ΔmA610 (3 min) (laccase (NS51003); pH 5.5): 8
- Appearance in water ([1]; Table 1 (pH 5.5 series)): cloudy

Compound: O=C(O)C=Cc1cccc(O)c1 [3-Hydroxycinnamic acid]
- ΔmA610 (3 min) (laccase (NS51003); pH 5.5): 7
- Appearance in water ([1]; Table 1 (pH 5.5 series)): clear

Compound: O=C(O)C=Cc1ccc(Cl)cc1 [4-Chlorocinnamic acid]
- ΔmA610 (3 min) (laccase (NS51003); pH 5.5): 13
- Appearance in water ([1]; Table 1 (pH 5.5 series)): cloudy

Compound: COc1ccc(C=CC(=O)O)cc1O [3-Hydroxy-4-methoxycinnamic acid]
- ΔmA610 (3 min) (laccase (NS51003); pH 5.5): 94
- Appearance in water ([1]; Table 1 (pH 5.5 series)): clear

Compound: C(=NCc1ccccc1)c1ccccc1 [N-benzylidene benzylamine]
- ΔmA610 (3 min) (laccase (NS51003); pH 5.5): 28
- ΔmA610 (3 min) (laccase (NS51003); pH 7.0): 2
- mA610 (3 min) ([2]; laccase 0% v/v, xylanase 0.5% v/v): 112
- mA610 (3 min) ([2]; laccase 0.5% v/v, xylanase 0% v/v): 11
- mA610 (3 min) ([2]; laccase 0.5% v/v, xylanase 0.5% v/v): 163
- Appearance in water ([1]; Table 1 (pH 5.5 series)): clear
- Appearance in water ([1]; Table 2 (pH 7.0 series)): clear

Compound: CN(C)c1ccc(C=CC(=O)O)cc1 [4-(Dimethylamino)cinnamic acid]
- ΔmA610 (3 min) (laccase (NS51003); pH 5.5): 519
- Appearance in water ([1]; Table 1 (pH 5.5 series)): clear, yellow

Compound: O=C(O)C=Cc1ccc([N+](=O)[O-])cc1 [4-Nitrocinnamic acid]
- ΔmA610 (3 min) (laccase (NS51003); pH 5.5): 0
- Appearance in water ([1]; Table 1 (pH 5.5 series)): cloudy

Compound: O=C(O)c1ccccc1O [Salicylic acid]
- ΔmA610 (3 min) (laccase (NS51003); pH 5.5): 11
- Appearance in water ([1]; Table 1 (pH 5.5 series)): clear

Compound: Nc1ccccn1 [2-Aminopyridine]
- ΔmA610 (3 min) (laccase (NS51003); pH 5.5): 3
- ΔmA610 (3 min) (laccase (NS51003); pH 7.0): 2
- Appearance in water ([1]; Table 1 (pH 5.5 series)): light brown
- Appearance in water ([1]; Table 2 (pH 7.0 series)): light brown

Compound: COc1cccc(C=CC(=O)O)c1 [3-Methoxycinnamic acid]
- ΔmA610 (3 min) (laccase (NS51003); pH 5.5): 4
- Appearance in water ([1]; Table 1 (pH 5.5 series)): clear

Compound: COc1cc(C=CC(=O)O)ccc1O [4-Hydroxy-3-methoxycinnamic acid]
- ΔmA610 (3 min) (laccase (NS51003); pH 5.5): 441

Compound: COc1cc(C=CC(=O)O)cc(OC)c1OC [3,4,5-Trimethoxycinnamic acid]
- ΔmA610 (3 min) (laccase (NS51003); pH 5.5): 5
- Appearance in water ([1]; Table 1 (pH 5.5 series)): cloudy

Compound: O=C(O)C=Cc1ccc(O)cc1 [4-Hydroxycinnamic acid]
- ΔmA610 (3 min) (laccase (NS51003); pH 5.5): 42
- Appearance in water ([1]; Table 1 (pH 5.5 series)): clear

Compound: COc1ccc(CO)cc1OC [Veratryl alcohol]
- ΔmA610 (3 min) (laccase (NS51003); pH 5.5): 3
- Appearance in water ([1]; Table 1 (pH 5.5 series)): clear

Compound: COc1ccc(C=CC(=O)O)cc1 [4-Methoxycinnamic acid]
- ΔmA610 (3 min) (laccase (NS51003); pH 5.5): 6
- Appearance in water ([1]; Table 1 (pH 5.5 series)): cloudy

Compound: O=C(O)C=Cc1ccccc1Cl [2-Chlorocinnamic acid]
- ΔmA610 (3 min) (laccase (NS51003); pH 5.5): 9
- Appearance in water ([1]; Table 1 (pH 5.5 series)): cloudy

Compound: Nc1nc(N)nc(N)n1 [Melamine]
- ΔmA610 (3 min) (laccase (NS51003); pH 5.5): 128
- Appearance in water ([1]; Table 1 (pH 5.5 series)): cloudy

Compound: O=C(O)C=Cc1ccccc1 [Cinnamic acid]
- ΔmA610 (3 min) (laccase (NS51003); pH 5.5): 3
- Appearance in water ([1]; Table 1 (pH 5.5 series)): clear

Compound: COc1ccc(C=CC(=O)O)cc1OC [3,4-Dimethoxycinnamic acid]
- ΔmA610 (3 min) (laccase (NS51003); pH 5.5): 0
- Appearance in water ([1]; Table 1 (pH 5.5 series)): clear

Compound: CCOC(=O)c1ccccc1O [Ethyl Salicylate]
- ΔmA610 (3 min) (laccase (NS51003); pH 5.5): 2
- Appearance in water ([1]; Table 1 (pH 5.5 series)): cloudy

Compound: Nc1ccc(C=CC(=O)O)cc1 [4-Aminocinnamic acid]
- ΔmA610 (3 min) (laccase (NS51003); pH 5.5): 43
- Appearance in water ([1]; Table 1 (pH 5.5 series)): clear
